The assay concerns the target CSF-1R (Homo sapiens, UniProt P07333). The experiment in a line: Peptide (non-phosphorylated) assay, fluorescence polarization competition immunoassay. It is filed as biochemical. The note with it: 0.7 nM CSF-1R, 308 μM SYEGNSYTFIDPTQ peptide, 1 mM ATP, 80 min; mean of at least three determinations; read-out: c-fms Peptide IC50. In short, it runs like this: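 Human CSF-1R kinase reaction started with ATP and run 80 min at room temperature, then stopped with EDTA. Phosphopeptide detected by fluorescence polarization competition using anti-phosphotyrosine antibody and PTK green tracer after 30 min. Controls used 4% DMSO, with EDTA added before reaction start for positive controls.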
Background: In fluorescence polarisation assays a small probe gives low polarisation when free and higher when bound to something large.
Sequence of CSF-1R (P07333 20-972): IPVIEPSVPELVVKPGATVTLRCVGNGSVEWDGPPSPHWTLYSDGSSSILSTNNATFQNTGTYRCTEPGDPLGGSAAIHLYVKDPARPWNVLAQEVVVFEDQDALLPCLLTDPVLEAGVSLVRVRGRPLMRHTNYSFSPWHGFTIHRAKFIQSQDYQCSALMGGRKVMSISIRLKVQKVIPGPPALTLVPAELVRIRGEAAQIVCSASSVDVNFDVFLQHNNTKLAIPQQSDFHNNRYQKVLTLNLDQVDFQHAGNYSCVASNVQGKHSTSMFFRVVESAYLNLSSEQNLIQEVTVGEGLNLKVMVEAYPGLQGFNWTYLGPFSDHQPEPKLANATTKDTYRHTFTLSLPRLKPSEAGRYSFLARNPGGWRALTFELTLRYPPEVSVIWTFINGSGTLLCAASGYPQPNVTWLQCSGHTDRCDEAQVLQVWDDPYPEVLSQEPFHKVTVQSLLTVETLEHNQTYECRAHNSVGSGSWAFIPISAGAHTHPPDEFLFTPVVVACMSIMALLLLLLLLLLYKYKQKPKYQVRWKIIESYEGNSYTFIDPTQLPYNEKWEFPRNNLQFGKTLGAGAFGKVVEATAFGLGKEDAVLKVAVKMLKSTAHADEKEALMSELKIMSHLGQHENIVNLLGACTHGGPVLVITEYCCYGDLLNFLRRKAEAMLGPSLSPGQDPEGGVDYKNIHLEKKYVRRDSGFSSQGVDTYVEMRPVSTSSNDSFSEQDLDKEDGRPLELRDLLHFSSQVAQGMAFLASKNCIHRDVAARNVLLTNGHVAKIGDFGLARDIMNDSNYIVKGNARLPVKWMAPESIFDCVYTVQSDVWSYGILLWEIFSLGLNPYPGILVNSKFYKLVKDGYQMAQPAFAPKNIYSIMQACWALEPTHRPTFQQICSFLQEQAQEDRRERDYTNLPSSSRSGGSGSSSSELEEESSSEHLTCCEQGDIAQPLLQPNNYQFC
In the case of `CONC(=O)c1cn(-c2ccc3c(c2)CCC3)c2nc(Nc3cccc(NC(=O)CN(C)C)c3)ncc2c1=O` [Cpd 229, 2-[3-(2-dimethylamino-acetylamino)-phenylamino]-8-indan-5-yl-5-oxo-5,8-dihydro-pyrido[2,3-d]pyrimidine-6-carboxylic acid methoxy-amide], the IC50 (as a rule, the concentration needed to halve the response being measured) was found to be 0.42 nM.

On to `CONC(=O)c1cn(-c2ccc3c(c2)CCC3)c2nc(Nc3ccc4[nH]ccc4c3)ncc2c1=O` [Cpd 287, 8-indan-5-yl-2-(1H-indol-5-ylamino)-5-oxo-5,8-dihydro-pyrido[2,3-d]pyrimidine-6-carboxylic acid methoxy-amide], for which the IC50 is 0.9 nM.

Regarding `CC(C)NC(=O)c1cn(-c2ccc3c(c2)CCC3)c2nc(Nc3cccc(N4CCNCC4)c3)ncc2c1=O` [Cpd 1, 8-indan-5-yl-5-oxo-2-(3-piperazin-1-yl-phenylamino)-5,8-dihydro-pyrido[2,3-d]pyrimidine-6-carboxylic acid isopropylamide], the IC50 was 4.5 nM. For the compound `CONC(=O)c1cn(-c2ccc3c(c2)CCC3)c2nc(Nc3cccc(C4CCN(C)CC4)c3)ncc2c1=O` [Cpd 273, 8-indan-5-yl-2-[3-(1-methyl-piperidin-4-yl)-phenylamino]-5-oxo-5,8-dihydro-pyrido[2,3-d]pyrimidine-6-carboxylic acid methoxy-amide], the IC50 stood at 1 nM. As for `CONC(=O)c1cn(-c2ccc3c(c2)CCC3)c2nc(Nc3cccc(-n4cncn4)c3)ncc2c1=O` [Cpd 174, 8-indan-5-yl-5-oxo-2-(3-[1,2,4]triazol-1-yl-phenylamino)-5,8-dihydro-pyrido[2,3-d]pyrimidine-6-carboxylic acid methoxy-amide], the IC50 came out at 2.1 nM. On to `CC(C)ONC(=O)c1cn(C2CCCC2)c2nc(Nc3ccc(CCN4CCCC4)cc3)ncc2c1=O` [Cpd 41, 8-cyclopentyl-5-oxo-2-[4-(2-pyrrolidin-1-yl-ethyl)-phenylamino]-5,8-dihydro-pyrido[2,3-d]pyrimidine-6-carboxylic acid isopropoxy-amide], for which the IC50 is 4.1 nM. Regarding `CONC(=O)c1cn(-c2ccc3c(c2)CCC3)c2nc(Nc3ccc(CCn4ccnc4)cc3)ncc2c1=O` [Cpd 171, 2-[4-(2-imidazol-1-yl-ethyl)-phenylamino]-8-indan-5-yl-5-oxo-5,8-dihydro-pyrido[2,3-d]pyrimidine-6-carboxylic acid methoxy-amide], the IC50 was 0.76 nM. For the compound `CONC(=O)c1cn(-c2ccc3c(c2)CCC3)c2nc(Nc3ccc(N4CCC[C@H]4CO)cc3)ncc2c1=O` [Cpd 7, (S)-2-[4-(2-hydroxymethyl-pyrrolidin-1-yl)-phenylamino]-8-indan-5-yl-5-oxo-5,8-dihydro-pyrido[2,3-d]pyrimidine-6-carboxylic acid methoxy-amide], the IC50 worked out at 1.7 nM. For the compound `CCc1ccc(-n2cc(C(=O)NOC)c(=O)c3cnc(Nc4ccc5c(c4)OCCOCCOCCOCCO5)nc32)cc1` [Cpd 297, 8-(4-ethyl-phenyl)-2-(6,7,9,10,12,13,15,16-octahydro-5,8,11,14,17-pentaoxa-benzocyclopentadecen-2-ylamino)-5-oxo-5,8-dihydro-pyrido[2,3-d]pyrimidine-6-carboxylic acid methoxy-amide], the IC50 was 0.4 nM. `CONC(=O)c1cn(-c2ccc3c(c2)CCC3)c2nc(Nc3ccc4c(ccn4C)c3)ncc2c1=O` [Cpd 291, 8-indan-5-yl-2-(1-methyl-1H-indol-5-ylamino)-5-oxo-5,8-dihydro-pyrido[2,3-d]pyrimidine-6-carboxylic acid methoxy-amide]: the IC50 worked out at 1.3 nM.

For `CONC(=O)c1cn(-c2ccc3c(c2)CCC3)c2nc(Nc3cccc(C4CCN(C(C)=O)CC4)c3)ncc2c1=O` [Cpd 197, 2-[3-(1-acetyl-piperidin-4-yl)-phenylamino]-8-indan-5-yl-5-oxo-5,8-dihydro-pyrido[2,3-d]pyrimidine-6-carboxylic acid methoxy-amide], the IC50 worked out at 1.4 nM. As to `CCc1ccc(-n2cc(C(=O)NOC)c(=O)c3cnc(Nc4ccc(CCN5CCCC5)cc4)nc32)cc1` [Cpd 55, 8-(4-ethyl-phenyl)-5-oxo-2-[4-(2-pyrrolidin-1-yl-ethyl)-phenylamino]-5,8-dihydro-pyrido[2,3-d]pyrimidine-6-carboxylic acid methoxy-amide], the IC50 is 0.51 nM. `CONC(=O)c1cn(-c2ccc3c(c2)CCC3)c2nc(Nc3ccc(CCC(=O)NS(C)(=O)=O)cc3)ncc2c1=O` [Cpd 153, 8-indan-5-yl-2-[4-(3-methanesulfonylamino-3-oxo-propyl)-phenylamino]-5-oxo-5,8-dihydro-pyrido[2,3-d]pyrimidine-6-carboxylic acid methoxy-amide]: the IC50 stood at 3.2 nM. `CONC(=O)c1cn(-c2ccc3c(c2)CCC3)c2nc(Nc3ccc(-n4cccn4)cc3)ncc2c1=O` [Cpd 284, 8-indan-5-yl-5-oxo-2-(4-pyrazol-1-yl-phenylamino)-5,8-dihydro-pyrido[2,3-d]pyrimidine-6-carboxylic acid methoxy-amide]: the IC50 is 2.2 nM. For the compound `CONC(=O)c1cn(-c2ccc3c(c2)CCC3)c2nc(Nc3cccc(N4CCOCC4)c3)ncc2c1=O` [Cpd 325, 8-indan-5-yl-2-(3-morpholin-4-yl-phenylamino)-5-oxo-5,8-dihydro-pyrido[2,3-d]pyrimidine-6-carboxylic acid methoxy-amide], the IC50 stood at 0.5 nM. Then `CONC(=O)c1cn(-c2ccc3c(c2)CCC3)c2nc(Nc3ccc(CCNS(C)(=O)=O)cc3)ncc2c1=O` [Cpd 82, 8-indan-5-yl-2-[4-(2-methanesulfonylamino-ethyl)-phenylamino]-5-oxo-5,8-dihydro-pyrido[2,3-d]pyrimidine-6-carboxylic acid methoxy-amide], with 3.6 nM.

For `CONC(=O)c1cn(-c2ccc3c(c2)CCC3)c2nc(Nc3ccc(Cc4ccncc4)cc3)ncc2c1=O` [Cpd 173, 8-indan-5-yl-5-oxo-2-(4-pyridin-4-ylmethyl-phenylamino)-5,8-dihydro-pyrido[2,3-d]pyrimidine-6-carboxylic acid methoxy-amide], the IC50 was determined as 0.77 nM. Then `CCc1ccc(-n2cc(C(=O)NOC)c(=O)c3cnc(Nc4ccc5c(c4)CC(=O)N5)nc32)cc1` [Cpd 304, 8-(4-ethyl-phenyl)-5-oxo-2-(2-oxo-2,3-dihydro-1H-indol-5-ylamino)-5,8-dihydro-pyrido[2,3-d]pyrimidine-6-carboxylic acid methoxy-amide], with 0.6 nM.

As for `CCOC(=O)CN1CCC(c2ccc(Nc3ncc4c(=O)c(C(=O)NOC)cn(-c5ccc6c(c5)CCC6)c4n3)cc2)CC1` [Cpd 86, {4-[4-(8-indan-5-yl-6-methoxycarbamoyl-5-oxo-5,8-dihydro-pyrido[2,3-d]pyrimidin-2-ylamino)-phenyl]-piperidin-1-yl}-acetic acid ethyl ester], the IC50 came out at 1.8 nM. Then `CONC(=O)c1cn(-c2ccc3c(c2)CCC3)c2nc(Nc3cccc(C4(O)CCN(C)CC4)c3)ncc2c1=O` [Cpd 272, 2-[3-(4-hydroxy-1-methyl-piperidin-4-yl)-phenylamino]-8-indan-5-yl-5-oxo-5,8-dihydro-pyrido[2,3-d]pyrimidine-6-carboxylic acid methoxy-amide], with 0.88 nM. In the case of `NC(=O)c1cn(-c2ccc3c(c2)CCC3)c2nc(Nc3ccc(CCN4CCCC4)cc3)ncc2c1=O` [Cpd 5, 8-indan-5-yl-5-oxo-2-[4-(2-pyrrolidin-1-yl-ethyl)-phenylamino]-5,8-dihydro-pyrido[2,3-d]pyrimidine-6-carboxylic acid amide], the concentration for half-maximal inhibition (IC50) was 1.5 nM. For `CCONC(=O)c1cn(C2CCCCC2)c2nc(Nc3ccc(CCN4CCCC4)cc3)ncc2c1=O` [Cpd 15, 8-cyclohexyl-5-oxo-2-[4-(2-pyrrolidin-1-yl-ethyl)-phenylamino]-5,8-dihydro-pyrido[2,3-d]pyrimidine-6-carboxylic acid ethoxy-amide], the IC50 was determined as 0.19 nM. `CCONC(=O)c1cn(-c2ccc(CC)cc2)c2nc(Nc3ccc(CCN4CCN(C)CC4)cc3)ncc2c1=O` [Cpd 57, 8-(4-ethyl-phenyl)-2-{4-[2-(4-methyl-piperazin-1-yl)-ethyl]-phenylamino}-5-oxo-5,8-dihydro-pyrido[2,3-d]pyrimidine-6-carboxylic acid ethoxy-amide]: the IC50 is 0.6 nM. Regarding `CONC(=O)c1cn(-c2ccc3c(c2)CCC3)c2nc(Nc3ccc(S(=O)(=O)N4CCN(C)CC4)cc3)ncc2c1=O` [Cpd 154, 8-indan-5-yl-2-[4-(4-methyl-piperazine-1-sulfonyl)-phenylamino]-5-oxo-5,8-dihydro-pyrido[2,3-d]pyrimidine-6-carboxylic acid methoxy-amide], the IC50 was determined as 7.3 nM.

For the compound `C#Cc1ccc(-n2cc(C(=O)NOC)c(=O)c3cnc(Nc4ccc(CCN5CCCC5)cc4)nc32)cc1` [Cpd 32, 8-(4-ethynyl-phenyl)-5-oxo-2-[4-(2-pyrrolidin-1-yl-ethyl)-phenylamino]-5,8-dihydro-pyrido[2,3-d]pyrimidine-6-carboxylic acid methoxy-amide], the 50% inhibitory concentration (IC50) came to 3.7 nM.

Consider `CONC(=O)c1cn(C2CCCC2)c2nc(Nc3ccc(CCN4CCCC4=O)cc3)ncc2c1=O` [Cpd 38, 8-cyclopentyl-5-oxo-2-{4-[2-(2-oxo-pyrrolidin-1-yl)-ethyl]-phenylamino}-5,8-dihydro-pyrido[2,3-d]pyrimidine-6-carboxylic acid methoxy-amide], for which the IC50 stood at 2 nM. Turning to `CONC(=O)c1cn(-c2ccc3c(c2)CCC3)c2nc(Nc3cccc(C4(O)CCNC4)c3)ncc2c1=O` (stereo not shown) [Cpd 274, 2-[3-(3-hydroxy-pyrrolidin-3-yl)-phenylamino]-8-indan-5-yl-5-oxo-5,8-dihydro-pyrido[2,3-d]pyrimidine-6-carboxylic acid methoxy-amide], the IC50 amounted to 0.44 nM. Then `CONC(=O)c1cn(-c2ccc3c(c2)CCC3)c2nc(Nc3ccc(CCN4CCC(O)CC4)cc3)ncc2c1=O` [Cpd 238, 2-{4-[2-(4-hydroxy-piperidin-1-yl)-ethyl]-phenylamino}-8-indan-5-yl-5-oxo-5,8-dihydro-pyrido[2,3-d]pyrimidine-6-carboxylic acid methoxy-amide], with 0.64 nM.

Source of the values: patent US20080114007A1 (priority 2006, published 2008).
